For experiment [1], the target named is T1, human D4 receptor (D4.2 sub-type) (Homo sapiens, UniProt P21917, DEL265-296).
T1 sequence (P21917 with tags, fused parts or gaps DEL265-296): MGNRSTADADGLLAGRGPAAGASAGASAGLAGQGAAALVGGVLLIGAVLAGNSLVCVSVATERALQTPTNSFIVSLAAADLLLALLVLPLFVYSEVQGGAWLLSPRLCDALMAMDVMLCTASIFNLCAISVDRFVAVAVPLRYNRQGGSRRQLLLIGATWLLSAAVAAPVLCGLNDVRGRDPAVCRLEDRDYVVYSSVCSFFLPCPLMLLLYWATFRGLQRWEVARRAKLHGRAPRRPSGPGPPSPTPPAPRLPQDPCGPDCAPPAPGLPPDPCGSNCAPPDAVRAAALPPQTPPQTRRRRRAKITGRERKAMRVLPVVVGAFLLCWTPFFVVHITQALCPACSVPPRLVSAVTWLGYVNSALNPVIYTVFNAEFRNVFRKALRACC
The experiment can be described thus: D4 receptor binding assay, displacement of 3H-spiperone. To be noted: 3H-spiperone 0.25 nM; for Ki: membranes of HEK cells transfected with human D4.2, * = HCl salt, read-out: D4 RBA Ki; for D4 RBA % Inhibition (@ 1 μM): 1 μM test compound. The protocol:
D4 receptor-binding affinities of the compounds were evaluated according to their ability to reduce binding of ^3H-spiperone as compared to the reference compound clozapine. The potency of the test compound to reduce ^3H-spiperone binding directly correlated to its binding affinity for the receptor.
[…] (human embryonic kidney) cells stably transfected with human D4 receptor (D4.2 sub-type) were grown in NUNC cell factories for 5 days (75% confluency) without a media change and removed with versene (approximately 19 mg of cells per cell factory tray). The cells were then centrifuged in a Sorval centrifuge for 10 min, 5000 rpm (GS3 rotor) and the pellets quickly frozen in liquid nitrogen and stored at −80° C. until used in binding assay. When used in the assay, cells were thawed on ice for 20 min and then 10 mL of incubation buffer (50 mM Tris, 1 mM EDTA, 4 mM MgCl2, 5 mM KCl, 1.5 mM CaCl2, 120 mM NaCl, pH 7.4) was added. The cells were then vortexed to resuspend pellet and homogenized with a Kinematica, CH-6010 Kriens-LU, homogenizer for 15 seconds at setting 7. Concentration of receptor protein was determined using the Pierce BCA assay.
The incubation was started by the addition of 100 μl (50 μg protein) membrane homogenate to a solution of 300 μl incubation buffer and 100 μl (0.25 nM final conc.) ^3H-spiperone (90 Ci/mmol, Amersham, diluted in borosilicate glass vial) in 96-well polypropylene plates (1 ML per well). The plates were vortexed and incubated at room temperature for 90 minutes. The binding reaction was stopped by filtering using a Packard Harvester. The samples were filtered under vacuum over glass fibre filter plates (Whatman GF/B) presoaked for 2 hours in 0.3% polyethylenimine (PEI) in 50 mM Tris buffer (pH 7.4). The filters were then washed 6 times with 7 mL ice cold 50 mM Tris buffer (pH 7.4). The filter plates were dried overnight and 35 μl of Microscint-O (Packard) was added. The plates were sealed and counted in the Packard Top Count (3 minutes per well).
The incubation was started by the addition of 100 μl (50 μg protein) membrane homogenate to a solution of 200 μl incubation buffer, 100 μl ^3H-spiperone (90 Ci/mmol, Amersham, diluted in borosilicate glass vial to 0.25 nM final conc.) and 100 μl (30 μM final conc.) of fresh dopamine (Research Biochemicals Inc., light protected and dissolved in incubation buffer) in 96-well polypropylene plates (1 mL per well). The plates were vortexed and incubated at room temperature for 90 minutes at which time the binding reaction was stopped by filtering. The filters were washed and counted using the same procedure as in the total binding assay described above to give the non-specific binding value (NSB).
The incubation was started by the addition, in 96-well polypropylene plates (1 mL per well), of 100 μl (50 μg protein) membrane homogenate to a solution of 200 μl incubation buffer, 100 μl (0.25 nM final-conc.) ^3H-spiperone (90 Ci/mmol, Amersham, diluted in borosilicate glass vial) and 100 μl of test compound that was prepared from 1 mM stock dissolved in DMSO and stored at −20° C. in polypropylene cryogenic storage vials until dilution in incubation buffer in 96-well polypropylene plates. The plates were vortexed and incubated at room temperature for 90 minutes at which time the binding reaction was stopped by filtering. The filters were washed and counted using the same procedure as in the total binding assay described above to give the displacement binding value (BD).
The test compounds were initially assayed at 1 and 0.1 μM and then at a range of concentrations chosen such that the middle dose would cause about 50% inhibition of ^3H-spiperone binding. Specific binding in the absence of test compound (B0) was the difference of total binding (BT) minus non-specific binding (NSB) and similarly specific binding (in the presence of test compound) (B) was the difference of displacement binding (BD) minus non-specific binding (NSB). […]
In general terms: Loss of bound radioactivity is the signal in a displacement assay; it reports binding, not function.

Experiment [2] deals with MK-801 induced stereotypy (locomotion and falling behavior) in CD-1 or C57 male mice. In words: MK-801 Stereotypy in Mice. As to conditions: In Vivo Method PO, MK-801 0.2 mg/kg; for inhibition in vivo at 20 mg/kg: Mus musculus, read-out: Antag. of MK 801 Stereotypy % Inhib. @ 20 mg/kg. The protocol:
Mk-801 dose-dependently induces characteristic stereotypy marked by locomotion and falling behavior. This MK-801 induced behavior can be antagonized by novel neuroleptic agents. This assay can also assess time course effects following drug administration.
CD-1 or C57 male mice are individually placed in activity boxes (8 mice/drug) and allowed to acclimate for 60 minutes. The mice are then administered test compounds either i.p., s.c., or p.o., at 15, 30, or 60 minutes prior to MK-801 (0.2 mg/kg) administration. Mice are observed for the presence of locomotion and falling behaviors 15 minutes following MK-801. For the duration of action studies the test compounds are administered i.p., s.c., or p.o., at 30, 60, 120, 180, and 240 minutes prior to MK-801 administration.

Broadly, the Ki is a measure of affinity in units of concentration, obtained from inhibition or displacement.

Regarding `O[C@H](CNCc1ccc(F)cc1)COc1ccc(-c2csc3ccccc23)cc1` [Example 96, (R)-1-(4-benzo[b]thiophen-3-yl-phenoxy)-3-(4-fluoro-benzylamino)-propan-2-ol], the inhibition constant (Ki) in experiment [1] is 26 nM.

As to `CC1CCN(CCCOc2ccc(-c3noc4cc(F)ccc34)cc2)CC1` [Example 153], the Ki in experiment [1] was 3.8 nM. Moreover, the inhibition in vivo at 20 mg/kg in experiment [2] was 75%.

Take `O[C@@H](COc1ccc(-c2noc3cc(F)ccc23)cc1)CN1CCN(c2ccccn2)CC1` [Example 8]: in experiment [1], the Ki was determined as 9 nM. Also, the inhibition in vivo at 20 mg/kg in experiment [2] came out at 37.5%.

Regarding `COc1cccc(CNC[C@@H](O)COc2ccc(-c3noc4cc(F)ccc34)cc2)c1` [Example 80, (R)-1-[4-(6-fluoro-benzo[d]isoxazol-3-yl)-phenoxy]-3-(3-methoxy-benzylamino)-propan-2-ol], the “D4 RBA % Inhibition (@ 1 μM)” value in experiment [1] is 76%.

For the compound `O[C@@H](COc1ccc(-c2noc3cc(F)ccc23)cc1)CN1CCC(c2noc3cc(F)ccc23)CC1` [Example 34, (R)-1-[4-(6-fluoro-benzo[d]isoxazol-3-yl)-phenoxy]-3-[4-(6-fluoro-benzo[d]isoxazol-3-yl)-piperidin-1-yl]-propan-2-ol], the “D4 RBA % Inhibition (@ 1 μM)” value in experiment [1] is listed as 46%.

In the case of `O[C@@H](COc1ccc(-c2noc3cc(F)ccc23)cc1)CN1CCC(Oc2cccc(Cl)c2)CC1` [Example 90, (R)-1-[4-(3-chloro-phenoxy)-piperidin-1-yl]-3-[4-(6-fluoro-benzo[d]isoxazol-3-yl)-phenoxy]-propan-2-ol], the Ki in experiment [1] turned out to be 27 nM.

`O[C@H](CNC1CCc2ccccc21)COc1ccc(-c2noc3cc(F)ccc23)cc1` (stereo partly drawn) [Example 72, (R)-1-[4-(6-fluoro-benzo[d]isoxazol-3-yl)-phenoxy]-3-(indan-1-ylamino)-propan-2-ol]: the Ki in experiment [1] is 30 nM.

For the compound `CN(CCc1ccccc1)C[C@@H](O)COc1ccc(-c2noc3cc(F)ccc23)cc1` [Example 6], in experiment [1], the Ki was found to be 42 nM.

With `Fc1ccc2c(-c3ccc(OCCCN4CCCCCC4)cc3)noc2c1` [Example 156], the Ki in experiment [1] was 3.88 nM. Moreover, the inhibition in vivo at 20 mg/kg in experiment [2] is 50%.

As for `O[C@H](CNC1Cc2ccccc2C1)COc1ccc(-c2noc3cc(F)ccc23)cc1` [Example 89, (R)-1-[4-(6-fluoro-benzo[d]isoxazol-3-yl)-phenoxy]-3-(indan-2-ylamino)-propan-2-ol], the Ki in experiment [1] is 1.3 nM. Also, the “Antag. of MK 801 Stereotypy % Inhib. @ 20 mg/kg” value in experiment [2] is on record as 25%.

Regarding `CN(CCc1ccccc1)C[C@@H](O)COc1ccc(-c2noc3cc(F)ccc23)cc1` [Example 27, (R)-1-[4-(6-fluoro-benzo[d]isoxazol-3-yl)-phenoxy]-3-(methyl-phenethyl-amino)-propan-2-ol], the “D4 RBA % Inhibition (@ 1 μM)” value in experiment [1] was 66%.

`Fc1ccc2c(-c3ccc(OCCCN4CCCCCCC4)cc3)noc2c1` [Example 157]: the Ki in experiment [1] was 8.35 nM. For the same compound, the inhibition in vivo at 20 mg/kg in experiment [2] is 50%.

Turning to `CCCC1CCN(CCCOc2ccc(-c3noc4cc(F)ccc34)cc2)CC1` [Example 154], the Ki in experiment [1] is 11.2 nM. In addition, the inhibition in vivo at 20 mg/kg in experiment [2] stood at 25%.

As for `O[C@@H](COc1ccc(-c2noc3cc(F)ccc23)cc1)CN1CCN(c2ccccn2)CC1` [Example 29, (R)-1-[4-(6-fluoro-benzo[d]isoxazol-3-yl)-phenoxy]-3-(4-pyridin-2-yl-piperazin-1-yl)-propan-2-ol], the “D4 RBA % Inhibition (@ 1 μM)” value in experiment [1] is listed as 41%.

Take `O[C@H](CNCc1cccs1)COc1ccc(-c2noc3cc(F)ccc23)cc1` [Example 73, (R)-1-[4-(6-fluoro-benzo[d]isoxazol-3-yl)-phenoxy]-3-[(thiophen-2-ylmethyl)-amino]-propan-2-ol]: in experiment [1], the Ki worked out at 13 nM.

Take `O[C@@H](COc1ccc(-c2noc3cc(F)ccc23)cc1)CN1CCC(O)(c2ccccc2)CC1` [Example 38, (R)-1-{3-[4-(6-fluoro-benzo[d]isoxazol-3-yl)-phenoxy]-2-hydroxy-propyl}-4-phenyl-piperidin-4-ol]: the “D4 RBA % Inhibition (@ 1 μM)” value in experiment [1] worked out at 54%.

As for `CCCC1CCN(CCOc2ccc(-c3noc4cc(F)ccc34)cc2)CC1` [Example 146], the Ki in experiment [1] was found to be 34 nM.

Turning to `O[C@@H](COc1cccc(-c2noc3ncccc23)c1)CN1CCN(c2ncccn2)CC1` [Example 106, (R)-1-(3-isoxazolo[5,4-b]pyridin-3-yl-phenoxy)-3-(4-pyrimidin-2-yl-piperazin-1-yl)-propan-2-ol], the Ki in experiment [1] is 8.4 nM.

Turning to `O[C@@H](COc1cccc(-c2noc3cc(F)ccc23)c1)CN1CCN(c2ncccn2)CC1` [Example 69, (R)-1-[3-(6-fluoro-benzo[d]isoxazol-3-yl)-phenoxy]-3-(4-pyrimidin-2-yl-piperazin-1-yl)-propan-2-ol], the Ki in experiment [1] worked out at 14 nM.

As to `O[C@@H](COc1cccc(-c2noc3ncccc23)c1)CN1CCC(Oc2cccc(Cl)c2)CC1` [Example 102, (R)-1-[4-(3-chloro-phenoxy)-piperidin-1-yl]-3-(3-isoxazolo[5,4-b]pyridin-3-yl-phenoxy)-propan-2-ol], the “D4 RBA % Inhibition (@ 1 μM)” value in experiment [1] was determined as 59%.

As to `Fc1ccc2c(-c3ccc(OCCN4CCC5(CC4)OCCO5)cc3)noc2c1` [Example 152], the inhibition constant (Ki) in experiment [1] turned out to be 7.1 nM.

On to `Fc1ccc2c(-c3ccc(OCCCNCC4CCCCC4)cc3)noc2c1` [Example 158], for which the Ki in experiment [1] is 8.42 nM. Further, in experiment [2], the inhibition in vivo at 20 mg/kg came to 37.5%.
